Kd, DC50 and EC50 data for four molecules are collected here from ChEMBL document CHEMBL6103605, “Discovery of First-in-Class BAZ2A/B and BAZ2B-Selective Degraders” (ACS Med Chem Lett, 2025).

For test [1], the target named is Bromodomain adjacent to zinc finger domain protein 2B (Homo sapiens, UniProt Q9UIF8).
Description: Binding affinity to BAZ2B bromodomain (unknown origin) assessed as dissociation constant by BROMOscan technology
The target in test [2] is Bromodomain adjacent to zinc finger domain protein 2A (Homo sapiens, UniProt Q9UIF9).
Description: Binding affinity to BAZ2A bromodomain (unknown origin) assessed as dissociation constant by BROMOscan technology
The target in test [3] is von Hippel-Lindau disease tumor suppressor/Bromodomain adjacent to zinc finger domain protein 2B (Homo sapiens, UniProt Q9UIF8+P40337). Kind of test: PROTAC activity at BAZ2B/VHL in human PC-3 cells assessed as degradation after 4 hrs by Western blot analysis. (In general: In western blotting, separated proteins are transferred to a membrane and probed.)
Test [4] concerns the target von Hippel-Lindau disease tumor suppressor/Bromodomain adjacent to zinc finger domain protein 2A (Homo sapiens, UniProt Q9UIF9+P40337). Kind of test: PROTAC activity at BAZ2A/VHL in human PC-3 cells assessed as degradation after 4 hrs by Western blot analysis.
Test [5] concerns the target von Hippel-Lindau disease tumor suppressor/Bromodomain adjacent to zinc finger domain protein 2A (Homo sapiens, UniProt P40337+Q9UIF9). Kind of test: PROTAC activity at BAZ2A/VHL in human PC-3 cells assessed as BAZ2A degradation after 4 hrs by Western blot analysis.
A short description of test [6]: Induction of BAZ2A level in human PC-3 cells measured after 4 hrs by Western blot analysis. The following applies: PC-3, 4 h.

On to `Cn1cc(CCn2c(CO)nc(-c3cnn(C)c3)c2-c2ccc(C#N)cc2)cn1`, for which the Kd (commonly the concentration at which binding is half-saturated) in test [1] was 9.2 nM.
The same measure, in the same setting: the result for `COCc1nc(-c2cnn(C)c2)c(-c2ccc(C#N)cc2)n1CCc1cnn(C)c1` reads 10 nM.
On to `Cc1ncsc1-c1ccc(CNC(=O)[C@@H]2C[C@@H](O)CN2C(=O)[C@@H](NC(=O)C2(F)CC2)C(C)(C)SC[C@H]2CC[C@H](COCc3nc(-c4cnn(C)c4)c(-c4ccc(C#N)cc4)n3CCc3cnn(C)c3)CC2)cc1`, for which the Kd came to 16 nM in test [1] and 4.8 nM in test [2]. Besides, the DC50 (as a rule, the concentration giving 50% degradation) turned out to be 250 nM in test [3] and 180 nM in test [4].
As for `Cc1ncsc1-c1ccc(CNC(=O)[C@@H]2C[C@@H](O)CN2C(=O)[C@@H](NC(=O)C2(F)CC2)C(C)(C)C)c(OC[C@H]2CC[C@H](COCc3nc(-c4cnn(C)c4)c(-c4ccc(C#N)cc4)n3CCc3cnn(C)c3)CC2)c1`, the EC50 in test [5] and in test [6] was 35 nM in each case. Further, the figures for the Kd in test [1] and in test [2] were 51 nM and 4.7 nM, respectively. Moreover, the DC50 in test [3] was determined as 19 nM.
